# Test results taken from patent US20160151389A1 (priority 2014, published 2016).
# Legend:
# COX-2 = COX-2 expression in LPS-activated BV-2 microglia cells (western blot); format: cell-based, mouse; settings: for relative expression rate of COX-2, fold of that of the control group: LPS 150 ng/ml 24 hours, vehicle group 8.34±0.05-fold; for inhibition ratio of COX-2 expression: LPS 150 ng/ml
# Protocol: (§1) BV-2 cells (i.e., a mouse microglial cell line) were cultured in DMEM at a concentration of 2×10^5 cells per mL of the DMEM at 37° C. with 5% CO2 for 16 hours, wherein the DMEM was supplemented with deactivated fetal bovine serum (FBS, 10%), penicillin G (100 units/ml)/streptomycin (100 μg/ml), L-glutamine (3.65 mM), 4-(2-hydroxyethyl)-1-piperazineethanesulfonic acid (HEPES, 18 mM) and NaHCO3 (23.57 mM). […] Then, BV-2 cells were activated by being treated with lipopolysaccharide (LPS, 150 ng/ml) for 24 hours. BV-2 cells were lysed by a cell lysis buffer and centrifuged.
# JNK MAPK = test: Phosphorylation of JNK MAPK in LPS-activated BV-2 microglia cells (western blot); format: cell-based, mouse; settings: LPS-induced, vehicle group 5.5±0.3 fold
# Protocol: as §1
# MMP-9 = test: MMP-9-mediated gelatinolysis in astrocytes induced by LPS or thrombin (zymographic analysis); format: cell-based, rat
# Excerpt: It has been known that the MMP-9-mediated gelatinolysis in astrocytes can be induced by LPS in a concentration dependent manner. The preparation and culture of astrocytes can be seen in “Preparation of separate astroglial and oligodendroglial cell cultures from rat cerebral tissue. J. Cell Biol. 85:890-902 (1980)” and “A potent antioxidant, lycopene, affords neuroprotection against microglia activation and focal cerebral ischemia in rats. In Vivo. 18:351-356 (2004)”, which are entirely incorporated hereinto by reference.
# Astrocytes were respectively treated with vehicle (i.e., 0.2% ethanol) or ergostatrien-3β-ol (1, 5 and 10 μM) for 15 minutes, and then induced by LPS (500 ng/ml) or thrombin (10 units/ml) for 24 hours to induce the activation of MMP-9 in the astrocytes.
# ICH mouse model [1] = test: Brain water content in collagenase-induced ICH mouse model; format: in vivo; settings: ipsilateral hemisphere, 48 hours after ICH; 30 mg/kg orally at 30 minutes post-collagenase; ICH group 81.2±0.3%, NS group 78.7±0.1
# Protocol: Male C57B2/6J mice (each weighs about 23 to 28 g) were anesthetized with chloral hydrate (400 mg/kg), and then a 1 mm burr hole was drilled 2 mm lateral to the midline and 0.3 mm anterior to the bregma of each mouse. Type VII-S collagenase (0.02 unit dissolved in 1 μl saline) was infused into the area of the caudate/putamen at a rate of 0.2 μl/min for 5 minutes. After an additional period of 5 minutes, the burr hole was occluded. The mice were allowed to recover with a controlled heating lamp and a controlled heating pad (37° C.) and an ICH mouse model was obtained, hereinafter referred to as “ICH group.” Additionally, a pseudo-animal that was handled with the same mode but only infused with an equal volume of normal saline (NS) was obtained, hereinafter referred to as “NS group.” […]
# After wet weights of the brain tissues of ipsilateral hemisphere and contralateral hemisphere of the “NS group,” “ICH group” and “ICH+ergostatrien-3β-ol group”) mice were measured, the brain tissues of the ipsilateral hemisphere and contralateral hemisphere were dried at 100° C. for 24 hours to obtain the dry weights. The brain water content was calculated by the following formula: (wet weight−dry weight)/wet weight×100%.
# ICH mouse model [2] = test: Neurobehavioral test in collagenase-induced ICH mouse model; format: in vivo; settings: 48 hours after ICH; 30 mg/kg orally; minimum 3, maximum 18; ICH group 9.6±1.2
# Protocol: Male C57B2/6J mice (each weighs about 23 to 28 g) were anesthetized with chloral hydrate (400 mg/kg), and then a 1 mm burr hole was drilled 2 mm lateral to the midline and 0.3 mm anterior to the bregma of each mouse. Type VII-S collagenase (0.02 unit dissolved in 1 μl saline) was infused into the area of the caudate/putamen at a rate of 0.2 μl/min for 5 minutes. After an additional period of 5 minutes, the burr hole was occluded. The mice were allowed to recover with a controlled heating lamp and a controlled heating pad (37° C.) and an ICH mouse model was obtained, hereinafter referred to as “ICH group.” Additionally, a pseudo-animal that was handled with the same mode but only infused with an equal volume of normal saline (NS) was obtained, hereinafter referred to as “NS group.”
# At 30 minutes post-collagenase injection, ergostatrien-3β-ol suspended in a 0.5% (w/v) vehicle (e.g., carboxymethyl cellulose (CMC)) was orally administered to the mouse at a dosage of 30 mg/kg. […]
# At 48 hours after ICH was induced by collagenase, three groups of mice mentioned in Example 4 (i.e., the “NS group,” “ICH group” and “ICH+ergostatrien-3β-ol group”) were analyzed by a neurobehavioral test, which includes six tests for spontaneous activity, symmetry in the movement of four limbs, forepaw outstretching, climbing, body proprioception, and response to vibrissae touch. […]
smiles,measurement,setting,value
CC(C)[C@@H](C)/C=C/[C@@H](C)C1CCC2C3=CCC4C[C@@H](O)CC[C@]4(C)C3=CC[C@@]21C (stereo partly shown),"relative expression rate of COX-2, fold of that of the control group",COX-2; 0.5 μM pre-treatment 15 minutes,4.80±0.75 fold
same,inhibition ratio of COX-2 expression,COX-2; 0.5 μM,74%
same,"relative expression rate of COX-2, fold of that of the control group",COX-2; 1 μM pre-treatment 15 minutes,3.91±0.64 fold
same,inhibition ratio of COX-2 expression,COX-2; 1 μM,94%
same,"relative expression rate of COX-2, fold of that of the control group",COX-2; 5 μM pre-treatment 15 minutes,1.92±0.98 fold
same,inhibition ratio of COX-2 expression,COX-2; 5 μM,98%
same,"relative expression rate of COX-2, fold of that of the control group",COX-2; 10 μM pre-treatment 15 minutes,2.14±0.86 fold
same,inhibition ratio of COX-2 expression,COX-2; 10 μM,106%
same,"phosphorylation level of JNK MAPK, fold of that of the control group",JNK MAPK; 0.5 μM pre-treatment,5.5±0.9 fold
same,"phosphorylation level of JNK MAPK, fold of that of the control group",JNK MAPK; 1 μM pre-treatment,3.9±0.2 fold
same,"phosphorylation level of JNK MAPK, fold of that of the control group",JNK MAPK; 5 μM pre-treatment,3.5±0.6 fold
same,"phosphorylation level of JNK MAPK, fold of that of the control group",JNK MAPK; 10 μM pre-treatment,2.4±0.3 fold
same,"MMP-9-mediated gelatinolysis, fold of that of the control group","MMP-9; LPS 500 ng/ml 24 hours, first of three values, 1 μM per b67 (b68 lists 0.5, 1, 5 or 10 μM), vehicle group 3.3±0.4-fold",2.9±0.3 fold
same,"MMP-9-mediated gelatinolysis, fold of that of the control group","MMP-9; LPS 500 ng/ml 24 hours, second of three values, 5 μM, vehicle group 3.3±0.4-fold",2.5±0.3 fold
same,"MMP-9-mediated gelatinolysis, fold of that of the control group","MMP-9; LPS 500 ng/ml 24 hours, third of three values, 10 μM, vehicle group 3.3±0.4-fold",2.1±0.3 fold
same,"MMP-9-mediated gelatinolysis, fold of that of the control group","MMP-9; thrombin 10 units/ml 24 hours, 5 μM, vehicle group 5.5±0.4-fold",5.1±0.4 fold
same,"MMP-9-mediated gelatinolysis, fold of that of the control group","MMP-9; thrombin 10 units/ml 24 hours, 10 μM, vehicle group 5.5±0.4-fold",3.3±0.8 fold
same,brain water content,ICH mouse model [1],80.4±0.3%
same,neurobehavioral score,ICH mouse model [2],13.4±1.1
